Source: patent publication US20140050778A1, “NUCLEIC ACID BINDING COMPOUNDS, METHODS OF MAKING, AND USE THEREOF” (UNIVERSITY OF ROCHESTER, priority 2010, published 2014)
Read-outs that look alike come from different tables or passages of the source.

What was measured:
[1] = system: (CUG)4 RNA (SEQ ID NO: 2); test: SPR binding to immobilized biotinylated RNA; conditions: for Off-rates (koff) / On-rates (kon): SPR
Method: (§1) SPR binding measurements were performed on a Biacore-X instrument (Biacore, Inc., Uppsala, Sweden) with two flow channels (FC1 and FC2). 5′-Biotinylated-RNA sequences, with a C6 linker separating the biotin label from the RNA (Integrated DNA Technologies Inc.) were immobilized on streptavidin (Rockland Immunochemicals) functionalized carboxylmethyl dextran coated sensor chips (CM5, G.E. Healthcare) using EDC/NHS (Advanced ChemTech) coupling chemistry. Filtered (0.2μ), degassed and autoclaved HBS-N buffer (0.01M Hepes, pH=7.4, 0.15 M NaCl) was employed as sample and as running buffer for all SPR experiments. A typical protocol for an experiment is as follows: A CM5 sensor chip was allowed to equilibrate to room temperature and then docked into the instrument. Following priming with running buffer, FC1 and FC2 were conditioned by manual injection of 20 μL aqueous NaOH (50 mM) at a flow rate of 30 μL/min. This was repeated 3 times followed by a wash command. Next, the carboxyl groups on the sensor chip surface in both flow cells were activated separately by injecting 60 μL of freshly prepared 1:1 mixture of EDC (0.4 M) and NHS (0.1 M) at a 5 μL/min flow rate followed by a wash. […] After washing, the surface was deactivated with 60 μL injection of ethanolamine (1M, pH=8.5) at 5 μL/min. The flow cells were primed, and the streptavidin surface in FC1 alone was blocked with 30 μL of biotin (20 μM in HBS-N) at 5 μL/min. The RNA (200 nM in running buffer, HBS-N) to be immobilized was unfolded by heating above its predicted melting temperature in a heated block for 2 min and then allowed to refold by cooling gradually to room temperature. The RNA was then immobilized in FC2 alone to response units ranging from 200-1000 RU using a 5 μL/min flow rate. Representative sensorgrams for the immobilization procedure is shown in FIGS. 2A-B. Two 20 μL aliquots of NaCl (0.5 M) were injected at a 30 μL/min flow rate to remove non-specifically bound RNA. The level of RNA immobilized was noted when the baseline was stable, usually after repeated buffer injection followed by a “prime” command. Binding measurements were performed by flowing various concentrations of the compounds to be analyzed over the immobilized RNA and recording the reference-subtracted (FC2−FC1) sensorgrams. For kinetic analysis, at least five sensorgrams corresponding to different concentrations of compound (usually ranging from 0.05-1 μM in HBS-N) were obtained using flow rates of either 60 μL/min or 30 μL/min. The experimental sensorgrams were globally fitted to a 1:1 binding equation (Biaevaluation software) to obtain association rates (ka) and dissociation rates ([…]) as well as equilibrium binding constants (KD). To measure the binding stoichiometry (n), the relations in equations (1-3) below were used: […]
(§2) where RUmax is the maximum resonance response unit at saturation, RURNA is the amount RU of RNA immobilized, n is the stoichiometry, MWcompound and MWRNA are molecular weights of compound and RNA respectively, and RUeq represents the resonance response at steady-state (equilibrium). The response units at equilibrium were subjected to Scatchard binding plots of (r/Cfree vs. r).
(§3) The binding characteristics of compounds 3-11 were evaluated against pathogenic CUG^exp RNA and other RNA sequences by SPR. This technique allows the association and dissociation rates (ka and kd), equilibrium binding constants (KD), and the binding stoichiometry (n) to be measured in a label-free format (Liu and Wilson, “Quantitative Analysis of Small Molecule-nucleic Acid Interactions with a Biosensor Surface and Surface Plasmon Resonance Detection,” Methods Mol. Biol. 613:1-23 (2010), which is hereby incorporated by reference in its entirety). […]

[2] = system: CUG-CAG duplex ("Duplex") (SEQ ID NO: 6); test: SPR binding to immobilized biotinylated RNA; conditions: for Residence time (t1/2) for compound binding to RNA / Off-rates (koff) / On-rates (kon): Duplex
Method: as §1, §2, §3

[3] = system: (CAG)10 RNA (SEQ ID NO: 5); test: SPR binding to immobilized biotinylated RNA; conditions: for Off-rates (koff) / On-rates (kon): SPR
Method: as §1, §2, §3

[4] = system: (CCUG)10 RNA (SEQ ID NO: 4); test: SPR binding to immobilized biotinylated RNA; conditions: (CCUG)10; for Off-rates (koff) / On-rates (kon): SPR
Method: as §1, §2, §3

[5] = system: (CUG)10 RNA (SEQ ID NO: 3); test: SPR binding to immobilized biotinylated RNA; conditions: (CUG)10; for improvement in affinity relative to compound 1: SPR KD versus filter-binding KD of compound 1
[6] = system: HIV-1 FSS RNA (SEQ ID NO: 7); test: SPR binding to immobilized biotinylated RNA
Method: as §1
as §2, with “r). […]” for “r).”
(§4) SPR and fluorescence titration experiments, performed using the protocol described in Examples 3 and 4 above, except using as the target a highly conserved RNA sequence responsible for regulating the production of the Gag-Pol polyprotein via a −1 ribosomal frameshift, which occurs along a “slippery sequence” in gag-pol mRNA (SEQ ID NO: 7). This “frameshift stimulatory sequence” (or “HIV-1 FSS”) consists of an upper stemloop and a lower stem, separated by a purine bulge in the most common types of HIV (FIG. 19). For the fluorescent titration experiments, the upper stemloop of SEQ ID NO: 7 was employed. Cell uptake and toxicity studies were carried out using human fibroblasts according to Example 5 above.

human fibroblasts = test: Cell permeability by fluorescence microscopy; type: cell-based; conditions: intrinsic fluorescence, 4 and 5 incubated as a mixture
Method: For cell permeability studies, human fibroblasts or mouse myoblasts grown to 80% confluence were exposed to compounds for 12 hours in a 96 well tissue culture plate. After removal of the culture media (DMEM, with 10% FBS, 1% pen-strep (GIBCO)) the cells were washed twice with PBS to remove excess compounds. Cells were then imaged while in buffer under a fluorescence microscope (Olympus IX70) in the 96-well plate using a 460 nm emission filter.
as §4

SMILES	Residence time (t1/2) for compound binding to RNA [1] [min]	Off-rates (koff) [1] [s⁻¹]	On-rates (kon) [1] [M⁻¹ s⁻¹]	Residence time (t1/2) for compound binding to RNA [2] [min]	Off-rates (koff) ([2]; SPR) [s⁻¹]	On-rates (kon) ([2]; SPR) [M⁻¹ s⁻¹]	Residence time (t1/2) for compound binding to RNA [3] [min]	Off-rates (koff) [3] [s⁻¹]	On-rates (kon) [3] [M⁻¹ s⁻¹]	Residence time (t1/2) for compound binding to RNA [4] [min]	Off-rates (koff) [4] [s⁻¹]	On-rates (kon) [4] [M⁻¹ s⁻¹]	Residence time (t1/2) for compound binding to RNA [5] [min]	improvement in affinity relative to compound 1 [5]	Off-rates (koff) ([5]; SPR) [s⁻¹]	On-rates (kon) ([5]; SPR) [M⁻¹ s⁻¹]	Kd ([5]; SPR, read-out: apparent KD) [nM]	ka ([5]; Table 7, SPR)	kd ([5]; Table 7, SPR)	Kd ([5]; Table 7, SPR, read-out: KD) [nM]	also measured
CCc1nc2cc3ccccc3cc2cc1C(=O)N1CCC[C@H]1C(=O)N[C@@H](C/C=C\C[C@H](NC(=O)[C@@H]1CCCN1C(=O)c1cc2cc3ccccc3cc2nc1CC)C(=O)N[C@@H](CCCCN)C(=O)NCCCN)C(=O)N[C@@H](CCCCN)C(=O)NCCCN [Compound 4]	7.0858	0.00163	42400	7.549	0.00153	29500	3.9965	0.00289	35600	6.2772	0.00184	60100	9.7882	roughly 50 fold	0.00118	27800	45 ± 3.3	ka = 2.78E+4/M * s	kd = 1.18E−3/s	45	binding to duplex CUG-CAG stronger than the E isomer, compound 5 ([2]; SPR): approximately 5.7 fold; Residence time (t1/2) for compound binding to RNA [6]: 0.7548 min; Off-rates (koff) ([6]; SPR): 0.0153 s⁻¹; On-rates (kon) ([6]; SPR): 11300 M⁻¹ s⁻¹; Kd ([6]; SPR, read-out: apparent KD): 1242.5 ± 0.6 nM; cell membrane penetration / localization (human fibroblasts): Localization is shown, especially in the nucleus of cells
CCc1nc2cc3ccccc3cc2cc1C(=O)N1CCC[C@H]1C(=O)N[C@@H](C/C=C/C[C@H](NC(=O)[C@@H]1CCCN1C(=O)c1cc2cc3ccccc3cc2nc1CC)C(=O)N[C@@H](CCCCN)C(=O)NCCCN)C(=O)N[C@@H](CCCCN)C(=O)NCCCN [Compound 5]	8.3093	0.00139	30100	3.0078	0.00384	15000	4.2308	0.00273	50200	11.702	0.000987	49700	4.6762	roughly 50 fold	0.00247	28400	88.2 ± 0.28	ka = 2.84E+4/M * s	kd = 2.47E−3/s	88	Residence time (t1/2) for compound binding to RNA [6]: 2.939 min; cell membrane penetration / localization (human fibroblasts): Localization is shown, especially in the nucleus of cells
